Test results published in patent US20130115671A1, “ENZYMES FROM CONIDIOBOLUS BREFELDIANUS AND PROCESS FOR PREPARATION THEREOF” (Council of Scientific and Industrial Research, priority 2010, published 2013).
Values joined by “and” are separate entries in the source; they are usually repeats but may differ in a detail not shown here. Equal values may be shown once. Read-outs that look alike come from different tables or passages of the source.

What was measured:
[1] = system: protease from Conidiobolus brefeldianus MTCC 5185; test: Stability of protease in presence of organic solvents at 37° C.; assay type: physicochemical; details: 20% (v/v) solvent; for Residual Activity (%) of protease, 30 min: pH 7, 30 min; for Residual Activity (%) of protease, 60 min: pH 7, 60 min; for Residual Activity (%) of protease, 120 min: pH 7, 120 min; for Residual Activity (%) of protease, 240 min: pH 7, 240 min; for Residual Activity (%) of protease, 0: crude protease, pH 7, 0 min
Method: This example illustrates the effect of water miscible as well as water immiscible organic solvents on stability of crude protease at 37° C. […] Samples were removed at different time intervals and residual activity was estimated. Sample without organic solvent served as control.

[2] = system: protease from Conidiobolus brefeldianus MTCC 5185; test: Stability of protease in presence of organic solvents at 28° C.; assay type: physicochemical; set-up: key to residual activity of protease, 0 h / residual activity of protease, 12 h: % of initial activity with respective solvent (initial = 100%); details: crude protease, 20% (v/v) solvent
Method: This example illustrates the effect of water miscible as well as water immiscible organic solvents on stability of crude protease at 28° C. […] Samples were removed at different time intervals and residual activity was estimated. Sample without organic solvent served as control. Initial activity with respective solvents was taken as 100% (Table 17). […] (Table 17).

[3] = system: protease secreted by Conidiobolus brefeldianus MTCC 5185; test: Effect of metals on protease activity; assay type: biochemical
[4] = system: protease from Conidiobolus brefeldianus MTCC 5185; test: Stability of protease at 50° C. in presence of trehalose and sorbitol; assay type: physicochemical; set-up: unit not given here
Source text: Stability increased with increasing concentration of trehalose and sorbitol.

[5] = system: protease from Conidiobolus brefeldianus MTCC 5185; test: Stability of protease at 50° C. in presence of sugar alcohols; assay type: physicochemical; set-up: unit not given here
Method: Ultrafiltered protease as described in example 27 was incubated at 50° C. in presence of glycerol, mannitol, sorbitol and xylitol at 20% concentration up to 3 h. Aliquots were removed at regular intervals of 30 min and residual activity was estimated at 50° C., pH 9.

[6] = system: protease from Conidiobolus brefeldianus MTCC 5185
Method: This example illustrates the stability of the protease in presence of salts. […] Aliquots were removed at regular intervals of 30 min and residual activity was estimated at 50° C., pH 9.

[7] = metal 5 mM in assay mixture, crude protease
[8] = ultrafiltered protease with 20% sugar alcohol, 0 min
[9] = 10 mM CaCl2, 0.5M NaCl, 0.5M glycine or 15% (NH4)2SO4, 0 min
[10] = salt concentration as in column head, 30 min
[11] = salt concentration as in column head, 60 min
[12] = salt concentration as in column head, 90 min
[13] = salt concentration as in column head, 120 min
[14] = salt concentration as in column head, 180 min

## CC#N [Acetonitrile, acetonitrile]
[1]
  Residual Activity (%) of protease, 30 min: 37.19%
  Residual Activity (%) of protease, 60 min: 36.40%
  Residual Activity (%) of protease, 120 min: 17.52%
  Residual Activity (%) of protease, 240 min: 13.45%
  Residual Activity (%) of protease, 0: 100%
[2]
  residual activity of protease, 0 h: 100
  residual activity of protease, 5 h: 98.31
  residual activity of protease, 12 h: 49.90

## [Cl-].[Cl-].[Co+2] [CoCl2]
[3]
  Relative Activity (%) of protease: 118.71%
  effect on protease activity: active

## O=S(=O)([O-])[O-].[Zn+2] [ZnSO4]
[3]; [7]
  Relative Activity (%) of protease: 58.03%

## OC[C@H]1O[C@H](O[C@H]2O[C@H](CO)[C@@H](O)[C@H](O)[C@H]2O)[C@H](O)[C@@H](O)[C@@H]1O [Trehalose, trehalose]
[4]; additive 20%, 0 h
  residual activity of protease at 50° C.: 100.00
[4]; additive 20%, 1 h
  residual activity of protease at 50° C.: 78.14
[4]; additive 20%, 2 h
  residual activity of protease at 50° C.: 62.15
[4]; additive 20%, 3 h
  residual activity of protease at 50° C.: 46.12
[4]; additive 20%, 4 h
  residual activity of protease at 50° C.: 39.80
[4]; additive 40%, 0 h
  residual activity of protease at 50° C.: 100.00
[4]; additive 40%, 1 h
  residual activity of protease at 50° C.: 85.27
[4]; additive 40%, 2 h
  residual activity of protease at 50° C.: 75.99
[4]; additive 40%, 3 h
  residual activity of protease at 50° C.: 75.47
[4]; additive 40%, 4 h
  residual activity of protease at 50° C.: 71.11
[4]; additive 50%, 0 h
  residual activity of protease at 50° C.: 100.00
[4]; additive 50%, 1 h
  residual activity of protease at 50° C.: 92.32
[4]; additive 50%, 2 h
  residual activity of protease at 50° C.: 89.98
[4]; additive 50%, 3 h
  residual activity of protease at 50° C.: 85.89
[4]; additive 50%, 4 h
  residual activity of protease at 50° C.: 81.89
[4]; additive 50%, 4 h, listed as trehalose
  residual activity of protease at 50° C.: ~80

## [Cl-].[Cl-].[Mg+2] [MgCl2]
[3]; [7]
  Relative Activity (%) of protease: 132.24%

## [Cl][Cd][Cl] [CdCl2]
[3]; metal 5 mM
  effect on protease activity: active
[3]; [7]
  Relative Activity (%) of protease: 114.30%

## OC[C@@H](O)[C@H](O)[C@@H](O)CO [xylitol]
[5]; 20% sugar alcohol, 30 min
  residual activity of protease at 50° C.: 76.31
[5]; 20% sugar alcohol, 60 min
  residual activity of protease at 50° C.: 63.36
[5]; 20% sugar alcohol, 90 min
  residual activity of protease at 50° C.: 52.42
[5]; 20% sugar alcohol, 120 min
  residual activity of protease at 50° C.: 44.61
[5]; 20% sugar alcohol, 180 min
  residual activity of protease at 50° C.: 39.25
[5]; [8]
  residual activity of protease at 50° C.: 100

## CC(C)=O [Acetone, acetone]
[1]
  Residual Activity (%) of protease, 30 min: 91.66%
  Residual Activity (%) of protease, 60 min: 81.10%
  Residual Activity (%) of protease, 120 min: 60.57%
  Residual Activity (%) of protease, 240 min: 29.53%
  Residual Activity (%) of protease, 0: 100%
[2]
  residual activity of protease, 0 h: 100
  residual activity of protease, 5 h: 95.66
  residual activity of protease, 12 h: 55.51

## [Ca+2].[Cl-].[Cl-] [CaCl2, Calcium chloride]
[3]
  Relative Activity (%) of protease: 118.25%
  effect on protease activity: active
[6]; [9]
  Residual Activity (%) of protease at 50° C.: 100.00%
[6]; [10]
  Residual Activity (%) of protease at 50° C.: 91.70%
[6]; [11]
  Residual Activity (%) of protease at 50° C.: 83.17%
[6]; [12]
  Residual Activity (%) of protease at 50° C.: 70.83%
[6]; [13]
  Residual Activity (%) of protease at 50° C.: 63.83%
[6]; [14]
  Residual Activity (%) of protease at 50° C.: 54.65%
[6]; salt concentration as in column head, 180 min, listed as Calcium chloride
  Residual Activity (%) of protease at 50° C.: around 55%

## OC[C@@H](O)[C@@H](O)[C@H](O)[C@@H](O)CO [sorbitol]
[5]; 20% sugar alcohol, 30 min
  residual activity of protease at 50° C.: 84.01
[5]; 20% sugar alcohol, 60 min
  residual activity of protease at 50° C.: 70.66
[5]; 20% sugar alcohol, 90 min
  residual activity of protease at 50° C.: 62.31
[5]; 20% sugar alcohol, 120 min
  residual activity of protease at 50° C.: 51.57
[5]; 20% sugar alcohol, 180 min
  residual activity of protease at 50° C.: 47 and 47.11
[5]; [8]
  residual activity of protease at 50° C.: 100
[4]; additive 20%, 0 h
  residual activity of protease at 50° C.: 100.0
[4]; additive 20%, 1 h
  residual activity of protease at 50° C.: 77.28
[4]; additive 20%, 2 h
  residual activity of protease at 50° C.: 49.25
[4]; additive 20%, 3 h
  residual activity of protease at 50° C.: 42.99
[4]; additive 20%, 4 h
  residual activity of protease at 50° C.: 33.11
[4]; additive 40%, 0 h
  residual activity of protease at 50° C.: 100.0
[4]; additive 40%, 1 h
  residual activity of protease at 50° C.: 87.00
[4]; additive 40%, 2 h
  residual activity of protease at 50° C.: 70.69
[4]; additive 40%, 3 h
  residual activity of protease at 50° C.: 61.54
[4]; additive 40%, 4 h
  residual activity of protease at 50° C.: 58.57
[4]; additive 50%, 0 h
  residual activity of protease at 50° C.: 100.0
[4]; additive 50%, 1 h
  residual activity of protease at 50° C.: 91.31
[4]; additive 50%, 2 h
  residual activity of protease at 50° C.: 88.44
[4]; additive 50%, 3 h
  residual activity of protease at 50° C.: 79.44
[4]; additive 50%, 4 h
  residual activity of protease at 50° C.: ~80
[4]; additive 50%, 4 h, listed as Sorbitol
  residual activity of protease at 50° C.: 78.25

## O=S(=O)([O-])[O-].[Mn+2] [MnSO4]
[3]; [7]
  Relative Activity (%) of protease: 108.39%

## [Cl][Mn][Cl] [MnCl2]
[3]; [7]
  Relative Activity (%) of protease: 104.49%

## [Cl][Cu][Cl] [CuCl2]
[3]; [7]
  Relative Activity (%) of protease: 12.78%

## [Cl-].[Na+] [NaCl]
[6]; [9]
  Residual Activity (%) of protease at 50° C.: 100.00%
[6]; [10]
  Residual Activity (%) of protease at 50° C.: 77.79%
[6]; [11]
  Residual Activity (%) of protease at 50° C.: 54.11%
[6]; [12]
  Residual Activity (%) of protease at 50° C.: 49.26%
[6]; [13]
  Residual Activity (%) of protease at 50° C.: 48.83%
[6]; [14]
  Residual Activity (%) of protease at 50° C.: 37.44%

## [Cl][Hg][Cl] [HgCl2]
[3]; metal 5 mM
  effect on protease activity: totally inhibited
[3]; [7]
  Relative Activity (%) of protease: 3.27%

## NCC(=O)O [glycine]
[6]; [9]
  Residual Activity (%) of protease at 50° C.: 100.00%
[6]; [10]
  Residual Activity (%) of protease at 50° C.: 74.85%
[6]; [11]
  Residual Activity (%) of protease at 50° C.: 54.19%
[6]; [12]
  Residual Activity (%) of protease at 50° C.: 43.16%
[6]; [13]
  Residual Activity (%) of protease at 50° C.: 39.89%
[6]; [14]
  Residual Activity (%) of protease at 50° C.: 31.62%

## OCC(O)CO [glycerol]
[5]; 20% sugar alcohol, 30 min
  residual activity of protease at 50° C.: 74.68
[5]; 20% sugar alcohol, 60 min
  residual activity of protease at 50° C.: 62.01
[5]; 20% sugar alcohol, 90 min
  residual activity of protease at 50° C.: 49.08
[5]; 20% sugar alcohol, 120 min
  residual activity of protease at 50° C.: 36.97
[5]; 20% sugar alcohol, 180 min
  residual activity of protease at 50° C.: 31.73
[5]; [8]
  residual activity of protease at 50° C.: 100

## O=S(=O)([O-])[O-].[Mg+2] [MgSO4]
[3]; [7]
  Relative Activity (%) of protease: 135.87%

## OC[C@@H](O)[C@@H](O)[C@H](O)[C@H](O)CO [Mannitol, mannitol]
[5]; 20% sugar alcohol, 30 min
  residual activity of protease at 50° C.: 74.06
[5]; 20% sugar alcohol, 60 min
  residual activity of protease at 50° C.: 64.42
[5]; 20% sugar alcohol, 90 min
  residual activity of protease at 50° C.: 58.13
[5]; 20% sugar alcohol, 120 min
  residual activity of protease at 50° C.: 48.66
[5]; 20% sugar alcohol, 180 min
  residual activity of protease at 50° C.: 40.71
[5]; [8]
  residual activity of protease at 50° C.: 100

## CO [Methanol, methanol]
[1]
  Residual Activity (%) of protease, 30 min: 59.43%
  Residual Activity (%) of protease, 60 min: 59.45%
  Residual Activity (%) of protease, 120 min: 48.36%
  Residual Activity (%) of protease, 240 min: 16.60%
  Residual Activity (%) of protease, 0: 100%
[2]
  residual activity of protease, 0 h: 100
  residual activity of protease, 5 h: 100.13
  residual activity of protease, 12 h: 52.64

## [Cl-].[Cl-].[Zn+2] [ZnCl2]
[3]; [7]
  Relative Activity (%) of protease: 60.27%

## [Cl-].[K+] [KCl]
[3]; metal 5 mM
  effect on protease activity: active
[3]; [7]
  Relative Activity (%) of protease: 158.50%

## [Cl][Ni][Cl] [NiCl2]
[3]; [7]
  Relative Activity (%) of protease: 65.60%
